US11339171B2, “MDM2 inhibitors” (Gan & Lee Pharmaceuticals, priority 2017, dated 2022)
Values joined by “and” are separate entries in the source; they are usually repeats but may differ in a detail not shown here. Equal entries are not always repeated. Where two headings read alike, the source gives them in different places.

What was measured:
[1] = tested on: human osteosarcoma cell line SJSA-1; assay: Inhibition of proliferation of human osteosarcoma cell line SJSA-1 (DAPI staining, In Cell Analyzer); details: Homo sapiens, SJSA-1, 72 h, read-out: IC50 (nM), inhibitory activity on proliferation of human osteosarcoma cell line SJSA-1, SJSA-1, incubated 72 h
[2] = target: T1, MDM2 (Homo sapiens, UniProt Q00987); assay: Inhibition test of MDM2-P53 (GST-MDM2, Biotin-P53, Anti-GST-Tb, SA-XL665); type: binding
T1 construct: made in house
Summary of the method: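 HTRF-type assay using 4 nM GST-MDM2 (final), Biotin-P53, SA-XL665 and anti-GST-Tb in PBS with 0.1% BSA, 5 mM DTT and 1 mM AEBSF. Compounds in 5-fold serial dilutions over twelve points; incubation 90 min at 25° C with shaking before plate-reader read-out.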

[3] = Pharmacokinetics in ICR mice after intravenous and intragastric administration; type: in vivo; details: for MRT last: read-out: MRT(0-t); for MRT inf: read-out: MRT(0-∞); for Vd: read-out: Vz; for half-life: read-out: t1/2 (converted)
Summary of the method: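 Male ICR mice, fasted overnight, n=3 per route, given 2 mg/kg IV or 5 mg/kg intragastric in 5% DMSO/40% PEG400/55% (10% HP-β-CD in saline). Plasma drug levels measured by LC-MS/MS after protein precipitation (LLOQ 1 ng/mL); noncompartmental AUC, t1/2, MRT, Cmax, Tmax, F, Vz, CL derived.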

[4] = IV 2 mg/kg, ICR mice, individual animal, 2 mg/kg
[5] = PO 5 mg/kg, ICR mice, individual animal, 5 mg/kg
[6] = male, ICR, mouse, plasma, iv, 2 mg/kg, IV 2 mg/kg, ICR mice, Mean
[7] = male, ICR, mouse, plasma, iv, 2 mg/kg, IV 2 mg/kg, ICR mice, individual animal
[8] = male, ICR, mouse, plasma, po, 5 mg/kg, PO 5 mg/kg, ICR mice, Mean
[9] = male, ICR, mouse, plasma, po, 5 mg/kg, PO 5 mg/kg, ICR mice, individual animal

T1 sequence (Q00987 whole entry): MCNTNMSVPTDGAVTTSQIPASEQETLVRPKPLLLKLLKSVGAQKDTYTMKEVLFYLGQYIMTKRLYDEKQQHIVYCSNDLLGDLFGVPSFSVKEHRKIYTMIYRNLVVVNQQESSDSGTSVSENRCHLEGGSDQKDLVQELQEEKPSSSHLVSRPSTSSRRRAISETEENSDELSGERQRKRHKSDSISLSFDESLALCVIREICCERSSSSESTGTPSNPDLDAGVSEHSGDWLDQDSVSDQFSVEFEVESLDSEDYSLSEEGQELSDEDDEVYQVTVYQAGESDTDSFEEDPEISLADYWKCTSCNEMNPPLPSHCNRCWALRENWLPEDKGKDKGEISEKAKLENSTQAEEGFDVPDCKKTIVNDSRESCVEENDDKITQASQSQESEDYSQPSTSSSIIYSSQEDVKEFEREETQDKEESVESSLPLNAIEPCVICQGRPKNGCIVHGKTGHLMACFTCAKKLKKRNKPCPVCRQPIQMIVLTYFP

Compound: COc1cc(N(C)C)ccc1-c1nc2c(n1C(C)C)[C@@]1(C(=O)Nc3cc(Cl)ccc31)N(c1cc(Cl)ccc1C)C2=O [Example S-23, (S)-6-chloro-5′-(5-chloro-2-methylphenyl)-2′-(4-(dimethylamino)-2-methoxyphenyl)-3′-isopropyl-3′H-spiro[dihydroindole-3,4′-pyrrolo[3,4-d]imidazole]-2,6′(5′H)-dione]
- IC50 [1]: 1.24 nM
- IC50 [2]: 2.8 nM
- AUC(0-t) [3, 4]: 6172.76 ng·h/mL and 6625.30 ng·h/mL
- AUC(0-∞) [3, 4]: 6427.71 ng·h/mL and 7084.65 ng·h/mL
- CL [3, 4]: 5.19 mL/min/kg and 4.71 mL/min/kg
- Cmax [3, 4]: 3040.32 ng/mL and 3640.21 ng/mL
- MRT(0-t) [3, 4]: 1.50 h and 1.55 h
- MRT(0-∞) [3, 4]: 1.75 h and 1.99 h
- Vz [3, 4]: 0.60 L/kg and 0.64 L/kg
- t1/2 [3, 4]: 1.33 h and 1.57 h
- F* ([3]; PO 5 mg/kg vs IV 2 mg/kg, ICR mice): 43.18%
- AUC(0-t) [3, 5]: 9122.66 ng·h/mL and 7675.41 ng·h/mL
- AUC(0-∞) [3, 5]: 9163.57 ng·h/mL and 7881.03 ng·h/mL
- Cmax [3, 5]: 3316.65 ng/mL and 2730.39 ng/mL
- MRT(0-t) [3, 5]: 2.02 h and 2.08 h
- MRT(0-∞) [3, 5]: 2.05 h and 2.29 h
- Tmax [3, 5]: 30 min
- t1/2 [3, 5]: 0.98 h and 1.52 h
- AUC(0-inf) [3, 6]: 8010 ng·h/mL
- clearance [3, 6]: 4.35 mL/min/kg
- AUC(0-t) ([3]; male, ICR, mouse, plasma, iv, 2 mg/kg, IV 2 mg/kg, ICR mice, Mean, read-out: AUC(0-t)): 7420 ng·h/mL
- Cmax ([3]; male, ICR, mouse, plasma, iv, 2 mg/kg, IV 2 mg/kg, ICR mice, Mean, read-out: Cmax): 3490 ng/mL
- MRT last [3, 6]: 1.61 h
- MRT inf [3, 6]: 2.07 h
- Tmax ([3]; male, ICR, mouse, plasma, iv, 2 mg/kg, IV 2 mg/kg, ICR mice, Mean, read-out: Tmax): 4.98 min
- Vd [3, 6]: 0.58 L/kg
- half-life [3, 6]: 95.4 min
- AUC(0-inf) [3, 7]: 10500 ng·h/mL
- clearance [3, 7]: 3.17 mL/min/kg
- AUC(0-t) ([3]; male, ICR, mouse, plasma, iv, 2 mg/kg, IV 2 mg/kg, ICR mice, individual animal, read-out: AUC(0-t)): 9460 ng·h/mL
- Cmax ([3]; male, ICR, mouse, plasma, iv, 2 mg/kg, IV 2 mg/kg, ICR mice, individual animal, read-out: Cmax): 3780 ng/mL
- MRT last [3, 7]: 1.78 h
- MRT inf [3, 7]: 2.46 h
- Tmax ([3]; male, ICR, mouse, plasma, iv, 2 mg/kg, IV 2 mg/kg, ICR mice, individual animal, read-out: Tmax): 4.8 min
- Vd [3, 7]: 0.51 L/kg
- half-life [3, 7]: 112 min
- AUC(0-inf) [3, 8]: 8120 ng·h/mL
- AUC(0-t) ([3]; male, ICR, mouse, plasma, po, 5 mg/kg, PO 5 mg/kg, ICR mice, Mean, read-out: AUC(0-t)): 8010 ng·h/mL
- Cmax ([3]; male, ICR, mouse, plasma, po, 5 mg/kg, PO 5 mg/kg, ICR mice, Mean, read-out: Cmax): 2700 ng/mL
- MRT last [3, 8]: 2.15 h
- MRT inf [3, 8]: 2.26 h
- Tmax ([3]; male, ICR, mouse, plasma, po, 5 mg/kg, PO 5 mg/kg, ICR mice, Mean, read-out: Tmax): 49.8 min
- half-life [3, 8]: 73.2 min
- AUC(0-inf) [3, 9]: 7320 ng·h/mL
- AUC(0-t) ([3]; male, ICR, mouse, plasma, po, 5 mg/kg, PO 5 mg/kg, ICR mice, individual animal, read-out: AUC(0-t)): 7240 ng·h/mL
- Cmax ([3]; male, ICR, mouse, plasma, po, 5 mg/kg, PO 5 mg/kg, ICR mice, individual animal, read-out: Cmax): 2050 ng/mL
- MRT last [3, 9]: 2.35 h
- MRT inf [3, 9]: 2.43 h
- Tmax ([3]; male, ICR, mouse, plasma, po, 5 mg/kg, PO 5 mg/kg, ICR mice, individual animal, read-out: Tmax): 60 min
- half-life [3, 9]: 69 min
- AUC(0-t) ([3]; male, ICR, mouse, plasma, po, 5 mg/kg, oral intragastric administration 5 mg/kg, read-out: AUC0-t): 8010 ng·h/mL
